Literature values in patent US9180154B2, “Method of manufacturing magnoliidae compounds” (Arizona Health Consulting Group, LLC, priority 2009, dated 2015).

Assays:
D2 receptor = molecular target: T1, D2 receptor (Rattus norvegicus, UniProt P61169)
T1 construct: from tissue; host or cells: normal rats (in vivo; tissue not specified)

D1 receptors = molecular target: T2, D1 receptors (Rattus norvegicus, UniProt P18901); details: rats with unilateral nigral lesion (DA receptor super sensitivity in striatum)
T2 construct: from tissue; host or cells: rats with unilateral nigral lesion (in vivo; striatum mentioned)
T2 sequence (P18901 whole entry): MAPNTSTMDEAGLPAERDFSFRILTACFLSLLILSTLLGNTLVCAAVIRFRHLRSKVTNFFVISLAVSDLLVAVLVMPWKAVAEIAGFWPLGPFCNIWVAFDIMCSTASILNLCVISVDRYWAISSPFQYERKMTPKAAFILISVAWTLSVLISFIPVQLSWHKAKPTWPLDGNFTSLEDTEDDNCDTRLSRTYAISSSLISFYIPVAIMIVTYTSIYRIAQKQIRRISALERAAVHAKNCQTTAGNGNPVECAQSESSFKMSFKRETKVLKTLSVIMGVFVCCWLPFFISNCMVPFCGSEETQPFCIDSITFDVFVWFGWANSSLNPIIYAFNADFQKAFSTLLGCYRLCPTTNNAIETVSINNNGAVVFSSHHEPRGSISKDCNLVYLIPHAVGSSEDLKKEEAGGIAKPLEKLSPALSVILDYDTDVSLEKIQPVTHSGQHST

[1] = tested on: D1-type and D2-type DA receptor; details: D1-type versus D2-type DA receptor

T1 sequence (P61169 whole entry): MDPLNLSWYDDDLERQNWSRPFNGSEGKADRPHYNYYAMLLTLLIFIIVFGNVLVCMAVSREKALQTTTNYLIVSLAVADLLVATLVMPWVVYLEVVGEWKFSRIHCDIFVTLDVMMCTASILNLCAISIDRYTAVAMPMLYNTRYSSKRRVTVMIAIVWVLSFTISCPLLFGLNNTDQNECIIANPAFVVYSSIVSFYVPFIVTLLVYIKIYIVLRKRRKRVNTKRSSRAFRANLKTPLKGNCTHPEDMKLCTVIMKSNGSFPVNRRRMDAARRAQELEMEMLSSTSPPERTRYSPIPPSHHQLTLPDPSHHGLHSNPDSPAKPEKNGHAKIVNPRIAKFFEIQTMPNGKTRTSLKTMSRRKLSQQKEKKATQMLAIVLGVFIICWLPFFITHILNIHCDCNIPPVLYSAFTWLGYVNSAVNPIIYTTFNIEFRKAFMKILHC

| SMILES | receptor action in normal rats (D2 receptor) | receptor action in lesioned rats (D1 receptors) | effect on D1-type and D2-type DA receptor binding [1] |
| --- | --- | --- | --- |
| COc1cc2c(cc1O)[C@@H]1Cc3ccc(O)c(OC)c3CN1CC2 [l-SPD, l-Stepholidine] | characteristics of D2 receptor antagonist | acts on D1 receptors as an agonist | – |
| COc1ccc2c(c1OC)CN1CCc3cc4c(cc3C1C2)OCO4 (stereo not drawn) [THB, tetrahydroberberine] | – | – | equipotent |
